Our source for the Kd values is patent US7384954B2 (priority 2003, dated 2008).

pKd: −log10 of the molar value.

The target of the test is α7 nAChR subtype (Rattus norvegicus, UniProt Q05941). Type of test: binding. To be noted: read-out: KD of radioligand from saturation curves.
α7 nAChR subtype, sequence (Q05941 23-502 limits assumed): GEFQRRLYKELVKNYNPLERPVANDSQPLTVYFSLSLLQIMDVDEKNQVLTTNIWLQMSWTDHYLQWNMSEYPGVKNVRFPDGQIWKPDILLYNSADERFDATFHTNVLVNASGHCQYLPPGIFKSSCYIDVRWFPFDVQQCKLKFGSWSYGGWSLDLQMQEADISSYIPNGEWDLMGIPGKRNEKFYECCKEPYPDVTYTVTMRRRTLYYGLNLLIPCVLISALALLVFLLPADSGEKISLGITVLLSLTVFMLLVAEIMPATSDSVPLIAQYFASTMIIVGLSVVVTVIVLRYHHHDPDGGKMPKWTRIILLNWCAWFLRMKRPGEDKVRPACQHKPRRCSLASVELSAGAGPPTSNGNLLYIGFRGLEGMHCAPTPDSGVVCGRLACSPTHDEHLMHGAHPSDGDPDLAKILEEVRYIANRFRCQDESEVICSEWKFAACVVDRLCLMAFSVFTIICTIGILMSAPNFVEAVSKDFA

For the substance 125I-α-Bungarotoxin [[^125I]-α-BTX], the pKd is 8.78.
